Legend:
p300; p300-HA = target: T1, p300; p300-HA (Homo sapiens, UniProt Q09472); test: in vitro lactylation of recombinant human TFEB, anti-Kla western blot; type: biochemical; conditions: acyl donor; acceptor protein TFEB (10 μg); immunoprecipitated p300-HA; 50 mM Tris-HCl pH 8.0, 30 °C, 1 h
T1 construct: gene EP300; HA-tagged p300 immunoprecipitated from transfected HEK293T cells

NDRG3 = target: T2, NDRG3 (Homo sapiens, UniProt Q9UGV2); test: isothermal titration calorimetry; intrinsic tryptophan fluorescence quenching; type: binding; conditions: ITC 25 °C, 10 mM lactate into 0.5 mM NDRG3; Trp quenching with sodium lactate, 100 μM protein, 10 mM NaH2PO4 pH 7.5; non-covalent; used as positive control for TFEB
T2 construct: human NDRG3 in pGEX-5X-1, GST-tagged, expressed in E. coli BL21, glutathione-Sepharose
T2 sequence (Q9UGV2 whole entry): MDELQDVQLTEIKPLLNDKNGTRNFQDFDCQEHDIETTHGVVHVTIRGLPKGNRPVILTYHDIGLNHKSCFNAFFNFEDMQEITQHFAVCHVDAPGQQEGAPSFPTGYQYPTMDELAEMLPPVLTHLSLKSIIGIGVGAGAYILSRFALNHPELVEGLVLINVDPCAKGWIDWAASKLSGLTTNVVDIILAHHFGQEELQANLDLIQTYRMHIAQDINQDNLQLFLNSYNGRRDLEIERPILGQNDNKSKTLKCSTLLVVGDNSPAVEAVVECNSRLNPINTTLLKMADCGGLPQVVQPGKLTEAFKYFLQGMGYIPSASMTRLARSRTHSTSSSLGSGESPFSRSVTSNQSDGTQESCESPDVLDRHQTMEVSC

T1 sequence (Q09472 2-2414): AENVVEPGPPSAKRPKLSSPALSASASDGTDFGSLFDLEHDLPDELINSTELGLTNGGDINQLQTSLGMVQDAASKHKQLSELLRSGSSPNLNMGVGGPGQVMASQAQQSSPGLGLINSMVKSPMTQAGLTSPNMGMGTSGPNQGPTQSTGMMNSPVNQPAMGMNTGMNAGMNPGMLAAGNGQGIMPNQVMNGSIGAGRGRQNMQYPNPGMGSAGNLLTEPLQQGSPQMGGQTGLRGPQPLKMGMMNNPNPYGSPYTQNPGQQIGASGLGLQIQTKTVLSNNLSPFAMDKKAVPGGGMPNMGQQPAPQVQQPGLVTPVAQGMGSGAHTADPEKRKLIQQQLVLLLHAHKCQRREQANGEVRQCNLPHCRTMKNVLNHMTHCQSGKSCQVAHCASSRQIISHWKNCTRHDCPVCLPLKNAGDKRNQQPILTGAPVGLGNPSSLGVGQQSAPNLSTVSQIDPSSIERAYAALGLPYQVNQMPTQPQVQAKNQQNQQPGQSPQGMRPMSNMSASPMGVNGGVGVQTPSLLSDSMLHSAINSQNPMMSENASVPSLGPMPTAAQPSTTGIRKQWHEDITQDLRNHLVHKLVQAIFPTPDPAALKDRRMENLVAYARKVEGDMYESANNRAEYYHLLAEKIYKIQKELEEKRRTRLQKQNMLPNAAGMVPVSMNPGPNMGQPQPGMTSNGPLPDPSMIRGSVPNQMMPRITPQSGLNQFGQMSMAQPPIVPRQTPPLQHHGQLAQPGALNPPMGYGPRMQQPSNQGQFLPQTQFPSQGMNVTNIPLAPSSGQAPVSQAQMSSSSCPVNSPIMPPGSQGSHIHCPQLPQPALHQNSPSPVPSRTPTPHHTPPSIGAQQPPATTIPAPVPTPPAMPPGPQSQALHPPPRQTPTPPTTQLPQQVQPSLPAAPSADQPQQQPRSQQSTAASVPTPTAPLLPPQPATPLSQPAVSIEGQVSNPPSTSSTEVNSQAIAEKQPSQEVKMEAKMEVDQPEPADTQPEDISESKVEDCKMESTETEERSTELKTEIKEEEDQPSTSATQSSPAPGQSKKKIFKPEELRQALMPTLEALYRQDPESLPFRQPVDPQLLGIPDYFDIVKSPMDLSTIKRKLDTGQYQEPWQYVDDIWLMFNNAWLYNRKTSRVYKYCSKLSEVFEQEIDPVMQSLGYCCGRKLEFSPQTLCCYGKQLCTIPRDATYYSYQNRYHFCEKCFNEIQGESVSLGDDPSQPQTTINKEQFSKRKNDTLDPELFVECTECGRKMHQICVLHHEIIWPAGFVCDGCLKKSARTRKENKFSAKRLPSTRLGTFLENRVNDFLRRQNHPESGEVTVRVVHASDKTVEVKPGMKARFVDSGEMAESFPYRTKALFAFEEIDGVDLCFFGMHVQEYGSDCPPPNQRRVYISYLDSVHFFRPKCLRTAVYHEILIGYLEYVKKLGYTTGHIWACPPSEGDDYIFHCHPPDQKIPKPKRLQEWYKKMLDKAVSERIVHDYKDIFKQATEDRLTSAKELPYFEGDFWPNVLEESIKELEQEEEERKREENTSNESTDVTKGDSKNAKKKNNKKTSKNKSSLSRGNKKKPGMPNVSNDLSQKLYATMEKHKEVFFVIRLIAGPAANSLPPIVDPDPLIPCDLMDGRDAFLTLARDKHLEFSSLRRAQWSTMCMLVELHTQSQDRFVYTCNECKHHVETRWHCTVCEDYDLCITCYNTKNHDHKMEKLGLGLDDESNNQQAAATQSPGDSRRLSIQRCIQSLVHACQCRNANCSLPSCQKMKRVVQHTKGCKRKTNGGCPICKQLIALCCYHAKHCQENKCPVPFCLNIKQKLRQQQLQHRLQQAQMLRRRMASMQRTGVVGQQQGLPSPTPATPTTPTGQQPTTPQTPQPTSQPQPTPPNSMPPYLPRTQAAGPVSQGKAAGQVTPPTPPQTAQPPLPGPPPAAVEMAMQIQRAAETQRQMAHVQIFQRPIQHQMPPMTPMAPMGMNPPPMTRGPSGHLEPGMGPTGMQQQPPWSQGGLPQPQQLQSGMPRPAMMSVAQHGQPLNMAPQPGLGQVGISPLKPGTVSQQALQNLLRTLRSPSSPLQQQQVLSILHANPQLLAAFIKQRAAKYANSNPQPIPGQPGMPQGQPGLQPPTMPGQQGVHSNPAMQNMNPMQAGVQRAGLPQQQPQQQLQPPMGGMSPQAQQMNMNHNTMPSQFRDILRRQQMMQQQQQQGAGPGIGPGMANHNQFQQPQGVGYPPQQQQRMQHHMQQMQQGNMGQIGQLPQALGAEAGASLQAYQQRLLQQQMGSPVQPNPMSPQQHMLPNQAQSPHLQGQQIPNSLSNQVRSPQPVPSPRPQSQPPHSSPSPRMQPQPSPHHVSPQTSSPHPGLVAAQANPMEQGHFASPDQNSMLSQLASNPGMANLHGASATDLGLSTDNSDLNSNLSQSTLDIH

| Structure (SMILES) | in vitro lactylation of recombinant human TFEB, anti-Kla western blot (p300; p300-HA) | isothermal titration calorimetry; intrinsic tryptophan fluorescence quenching (NDRG3) |
| --- | --- | --- |
| C[C@H](O)C(=O)SCCNC(=O)CCNC(=O)[C@H](O)C(C)(C)COP(=O)(O)OP(=O)(O)OC[C@H]1O[C@@H](n2cnc3c(N)ncnc32)[C@H](O)[C@@H]1OP(=O)(O)O [L-lactyl-CoA] | lactylation was observed in TFEB incubated with p300-HA instead of transferase-inactivated p300-WY-HA | – |
| C[C@H](O)C(=O)O [lactate] | – | sodium lactate resulted in the fixed tryptophan fluorescence quenching of purified NDRG3 |

From PMC11354204, “Lactylation stabilizes TFEB to elevate autophagy and lysosomal activity” (The Journal of Cell Biology, 2024)
